What was measured:
Amaranthus retroflexus = experiment: Weeding effect in post-emergence stage; format: in vivo; conditions: 250 g/ha; 2 leaf stage; 15 days after application; fresh weight control rate
Excerpt: (§1) The activity level criteria for harmful plant damage (i.e., growth control rate) are as follows: • Level 5: growth control rate is above 85%; • Level 4: growth control rate is greater than or equal to 60% and less than 85%; • Level 3: growth control rate is greater than or equal to 40% and less than 60%; • Level 2: growth control rate is greater than or equal to 20% and less than 40%; • Level 1: growth control rate is greater than or equal to 5% and less than 20%; • Level 0: growth control rate is less than 5%.
(§2) The above growth control rates are fresh weight control rates.
(§3) Experiment on weeding effect in post-emergence stage: monocotyledonous and dicotyledonous weed seeds (Descurainia sophia, Capsella bursa-pastoris, Galium aparine, Stellaria media, Lithospermum arvense, Rorippa indica, Alopecurus aequalis, Beckmannia syzigachne, Sclerochloa dura, Phleum paniculatum, Bromus japonicus, Aegilops tauschii, Phalaris arundinacea, Amaranthus retroflexus, Chenopodiaceae, Commelina communis, Sonchus arvensis, convolvulus arvensis, Cirsium setosum, Solanum nigrum, Acalypha australis, Digitaria sanguinalis, Echinochloa crusgalli, Setaria viridis, Setaria glauca, Leptochloa chinensis, Monochoria vaginalis, Sagittaria trifolia, Scirpus juncoides, Cyperus rotundus, Cyperus iria, Cyperus difformis, Fimbristylis, Portulaca oleracea, Xanthium sibiricum, Pharbitis nil) and major crop seeds (wheat, corn, rice, soybean, cotton, oilseed rape, millet, sorghum, potato, sesame, ricinus) were placed in plastic pots filled with soil, then covered with 0.5-2 cm of soil, allowed to grow in a good greenhouse environment. After 2 weeks of sowing, the test plants were treated in the 2 leaf stage. The tested compounds of the present invention were respectively dissolved in acetone, then added with Tween 80 and 1.5 liter/ha of emulsifiable concentrate of methyl oleate as synergist, diluted with a certain amount of water to obtain a solution with a certain concentration, and sprayed with a spray tower onto the plants. After the application, the plants were cultured for 15 days in the greenhouse, and then the experimental results of the weeding were counted. The doses of the used compounds were 500, 250, 125, 60, 30, 15 g/ha, and the averages were obtained by repeating for three times.

Echinochloa crusgali = experiment: Weeding effect in post-emergence stage; format: in vivo; conditions: 250 g/ha; 2 leaf stage; 15 days after application; fresh weight control rate
Excerpt: as §1, §2, §3

Row | SMILES | weeding effect in post-emergence stage, activity level (growth control rate), Amaranthus retroflexus (Amaranthus retroflexus) | weeding effect in post-emergence stage, activity level (growth control rate), Echinochloa crusgali (Echinochloa crusgali)
1 | Cc1nnc(NC(=O)c2ccc(C(F)(F)F)c([S+]([O-])[Si](C)(C)C)c2F)o1 (centres unmarked) [Compound 206] | 5 (Level 5: growth control rate is above 85%) | 5 (Level 5: growth control rate is above 85%)
2 | C#CCN(C(=O)c1ccc(C(F)(F)F)c([S@+]([O-])CC)c1F)c1nnc(C)o1 [Compound 214] | 5 (Level 5: growth control rate is above 85%) | 5 (Level 5: growth control rate is above 85%)
3 | CC[S@@+]([O-])c1c(C(F)(F)F)ccc(C(=O)N(C(C)=O)c2nnc(C)o2)c1F [Compound 216] | 5 (Level 5: growth control rate is above 85%) | 5 (Level 5: growth control rate is above 85%)
4 | CC[S@@+]([O-])c1c(C(F)(F)F)ccc(C(=O)N(C(=O)c2cn(C)nc2C)c2nnc(C)o2)c1F [Compound 223] | 5 (Level 5: growth control rate is above 85%) | 5 (Level 5: growth control rate is above 85%)
5 | CC[S@@+]([O-])c1c(C(F)(F)F)ccc(C(=O)N(C(=O)OC)c2nnc(C)o2)c1F [Compound 231] | 5 (Level 5: growth control rate is above 85%) | 5 (Level 5: growth control rate is above 85%)
6 | COc1c(C(=O)Nc2nnc(C)o2)ccc(C(F)(F)F)c1[S@+]([O-])CCc1ccccc1 [Compound 318] | 5 (Level 5: growth control rate is above 85%) | 5 (Level 5: growth control rate is above 85%)
7 | COc1c(C(=O)Nc2nnc(C)o2)ccc(C(F)(F)F)c1[S@+]([O-])CCO[Si](C)(C)C(C)(C)C [Compound 349] | 5 (Level 5: growth control rate is above 85%) | 5 (Level 5: growth control rate is above 85%)
8 | COc1c(C(=O)Nc2nnc(C)o2)ccc(C(F)(F)F)c1[S@+]([O-])CC(C)=O [Compound 351] | 5 (Level 5: growth control rate is above 85%) | 5 (Level 5: growth control rate is above 85%)
9 | COC(=O)CC[S@@+]([O-])c1c(C(F)(F)F)ccc(C(=O)Nc2nnc(C)o2)c1OC [Compound 354] | 5 (Level 5: growth control rate is above 85%) | 5 (Level 5: growth control rate is above 85%)
10 | COc1c(C(=O)Nc2nnc(C)o2)ccc(C(F)(F)F)c1[S+]([O-])COC(=O)C(C)(C)C (centres unmarked) [Compound 355] | 5 (Level 5: growth control rate is above 85%) | 5 (Level 5: growth control rate is above 85%)
11 | COc1c(C(=O)Nc2nnc(C)o2)ccc(C(F)(F)F)c1[S@+]([O-])Cc1cn(C)nc1C [Compound 356] | 5 (Level 5: growth control rate is above 85%) | 5 (Level 5: growth control rate is above 85%)
12 | CCCn1nnnc1NC(=O)c1ccc(C(F)(F)F)c([S@+]([O-])CCC)c1F [Compound 383] | 5 (Level 5: growth control rate is above 85%) | 5 (Level 5: growth control rate is above 85%)
13 | CC[S@@+]([O-])c1c(C(F)(F)F)ccc(C(=O)Nc2nnc(C(C)C)o2)c1OC [Compound 425] | 5 (Level 5: growth control rate is above 85%) | 5 (Level 5: growth control rate is above 85%)

Reference: US12643871B2, “Aryl formamide compound containing chiral sulfur oxide or salt thereof, preparation method, herbicidal composition and use thereof” (Qingdao Kingagroot Chemical Compound Co., Ltd., priority 2019, dated 2026)
